The species named for assay [1] is Homo sapiens. In words: In vitro significant inhibitory activity against human colon […]. Type of assay: functional. As to conditions: read-out: ID50 (the source's name).
Assay [2] concerns L1210. In words: In vitro significant inhibitory activity against L1210 leukemia cell lines. Type of assay: functional. As to conditions: Mus musculus, read-out: ID50 (the source's name).

Regarding `CN(C)Cc1ccc(NC2=C(Br)C(=O)C(Nc3ccc(CN(C)C)cc3)=C(Br)C2=O)cc1`, the IC50 in assay [1] turned out to be 140 nM.

In the case of `CN(C)Cc1ccc(NC2=C(Cl)C(=O)C(Nc3ccc(CN(C)C)cc3)=C(Cl)C2=O)cc1`, the IC50 in assay [1] was determined as 100 nM; in assay [2], 37 nM.

As to `CO[C@H](C(=O)[C@@H](O)[C@@H](C)O)[C@@H]1Cc2cc3cc(O[C@H]4C[C@@H](O[C@@H]5C[C@@H](O)[C@H](O)[C@@H](C)O5)[C@H](O)[C@@H](C)O4)c(C)c(O)c3c(O)c2C(=O)[C@H]1O[C@H]1C[C@@H](O[C@@H]2C[C@@H](O)[C@@H](O[C@@H]3C[C@](C)(O)[C@H](O)[C@@H](C)O3)[C@@H](C)O2)[C@H](O)[C@@H](C)O1` [PLICAMYCIN], the IC50 in assay [1] turned out to be 80 nM.
